Reference: ChEMBL document CHEMBL4342498, “Design and Discovery of an Orally Efficacious Spiroindolinone-Based Tankyrase Inhibitor for the Treatment of Colon Cancer” (J Med Chem, 2020)
≈ marks a conversion by molar mass, not a printed value.

System: MDR1
Test: Efflux ratio of permeability across basolateral to apical side over apical to basolateral side in MDCK2-MDR1 cells
Format: ADME, cell-based, Canis lupus familiaris
Conditions: dog, MDCK-MDR1

| efflux ratio | SMILES |
| --- | --- |
| 14.9 | CN1CCCc2c1nc(N1CCC3(CC1)C(=O)N(C)c1cc(OCCO)cc(F)c13)[nH]c2=O |
| 12 | CN1CCCc2c1nc(N1CCC3(CC1)C(=O)N(CS(C)(=O)=O)c1cc(F)cc(F)c13)[nH]c2=O |
| 2 | CN1CCCc2c1nc(N1CCC3(CC1)C(=O)N(CC(F)(F)F)c1cc(F)cc(F)c13)[nH]c2=O |
| 29.1 | CN1CCCc2c1nc(N1CCC3(CC1)C(=O)N(C)c1cc(OCCN4CCOCC4)cc(F)c13)[nH]c2=O |

Biological target: T1, Poly [ADP-ribose] polymerase tankyrase-1 (Homo sapiens, UniProt O95271)
T1 sequence (O95271 whole entry): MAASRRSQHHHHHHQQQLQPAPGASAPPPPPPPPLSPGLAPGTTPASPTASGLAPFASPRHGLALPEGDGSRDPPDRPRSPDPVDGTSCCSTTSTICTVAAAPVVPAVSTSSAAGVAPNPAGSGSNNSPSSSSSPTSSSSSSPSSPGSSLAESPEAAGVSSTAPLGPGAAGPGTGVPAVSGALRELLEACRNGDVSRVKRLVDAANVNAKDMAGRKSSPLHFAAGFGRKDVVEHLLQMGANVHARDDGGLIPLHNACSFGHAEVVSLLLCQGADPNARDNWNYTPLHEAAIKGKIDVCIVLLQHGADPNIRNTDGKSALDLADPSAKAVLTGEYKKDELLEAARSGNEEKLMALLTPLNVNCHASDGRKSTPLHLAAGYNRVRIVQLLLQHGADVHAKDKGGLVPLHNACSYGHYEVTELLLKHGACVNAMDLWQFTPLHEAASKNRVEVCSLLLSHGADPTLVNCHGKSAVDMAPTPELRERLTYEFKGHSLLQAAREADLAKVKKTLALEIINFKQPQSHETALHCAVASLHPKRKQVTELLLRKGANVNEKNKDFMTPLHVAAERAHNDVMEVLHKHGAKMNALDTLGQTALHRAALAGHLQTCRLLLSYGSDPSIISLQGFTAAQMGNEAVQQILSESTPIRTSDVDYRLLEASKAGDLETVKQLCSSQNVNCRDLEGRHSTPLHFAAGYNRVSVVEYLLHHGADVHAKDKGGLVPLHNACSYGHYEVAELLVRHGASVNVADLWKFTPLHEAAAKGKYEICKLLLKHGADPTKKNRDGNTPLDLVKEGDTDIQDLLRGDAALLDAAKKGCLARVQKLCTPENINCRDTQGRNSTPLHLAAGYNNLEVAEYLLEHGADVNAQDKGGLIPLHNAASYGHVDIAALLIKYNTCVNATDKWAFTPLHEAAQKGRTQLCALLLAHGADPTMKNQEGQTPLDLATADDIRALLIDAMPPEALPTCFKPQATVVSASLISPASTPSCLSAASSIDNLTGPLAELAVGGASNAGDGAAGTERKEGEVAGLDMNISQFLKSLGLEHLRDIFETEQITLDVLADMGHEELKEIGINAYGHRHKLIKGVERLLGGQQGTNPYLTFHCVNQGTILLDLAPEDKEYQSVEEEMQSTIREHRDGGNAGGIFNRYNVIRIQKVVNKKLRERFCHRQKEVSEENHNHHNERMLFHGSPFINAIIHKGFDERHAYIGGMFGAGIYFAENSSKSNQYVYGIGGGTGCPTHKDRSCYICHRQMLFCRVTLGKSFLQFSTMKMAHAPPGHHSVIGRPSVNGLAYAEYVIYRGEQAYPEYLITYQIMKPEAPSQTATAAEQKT
Test: not given
Conditions: not given

| IC50 [nM] | SMILES |
| --- | --- |
| 3.5 | CN1CCCc2c1nc(N1CCC3(CC1)C(=O)N(C)c1cc(OCCO)cc(F)c13)[nH]c2=O |
| 4.3 | CN1CCCc2c1nc(N1CCC3(CC1)C(=O)N(CS(C)(=O)=O)c1cc(F)cc(F)c13)[nH]c2=O |
| 16.2 | CN1CCCc2c1nc(N1CCC3(CC1)C(=O)N(CC(F)(F)F)c1cc(F)cc(F)c13)[nH]c2=O |
| 9.2 | CN1CCCc2c1nc(N1CCC3(CC1)C(=O)N(C)c1cc(OCCN4CCOCC4)cc(F)c13)[nH]c2=O |

System: not listed separately
Test: Net efflux ratio of permeability across basolateral to apical side over apical to basolateral side in MDCK2-MDR1 cells to MDCK2 cells
Format: ADME, cell-based, Canis lupus familiaris
Conditions: dog, mdck

| Ratio | SMILES |
| --- | --- |
| 2.4 | CN1CCCc2c1nc(N1CCC3(CC1)C(=O)N(C)c1cc(OCCO)cc(F)c13)[nH]c2=O |
| 3.6 | CN1CCCc2c1nc(N1CCC3(CC1)C(=O)N(CS(C)(=O)=O)c1cc(F)cc(F)c13)[nH]c2=O |
| 2.9 | CN1CCCc2c1nc(N1CCC3(CC1)C(=O)N(CC(F)(F)F)c1cc(F)cc(F)c13)[nH]c2=O |
| 5.7 | CN1CCCc2c1nc(N1CCC3(CC1)C(=O)N(C)c1cc(OCCN4CCOCC4)cc(F)c13)[nH]c2=O |

Biological target: T2, Tankyrase 1/2 (Homo sapiens, UniProt Q9H2K2+O95271)
T2 sequence (Q9H2K2 whole entry): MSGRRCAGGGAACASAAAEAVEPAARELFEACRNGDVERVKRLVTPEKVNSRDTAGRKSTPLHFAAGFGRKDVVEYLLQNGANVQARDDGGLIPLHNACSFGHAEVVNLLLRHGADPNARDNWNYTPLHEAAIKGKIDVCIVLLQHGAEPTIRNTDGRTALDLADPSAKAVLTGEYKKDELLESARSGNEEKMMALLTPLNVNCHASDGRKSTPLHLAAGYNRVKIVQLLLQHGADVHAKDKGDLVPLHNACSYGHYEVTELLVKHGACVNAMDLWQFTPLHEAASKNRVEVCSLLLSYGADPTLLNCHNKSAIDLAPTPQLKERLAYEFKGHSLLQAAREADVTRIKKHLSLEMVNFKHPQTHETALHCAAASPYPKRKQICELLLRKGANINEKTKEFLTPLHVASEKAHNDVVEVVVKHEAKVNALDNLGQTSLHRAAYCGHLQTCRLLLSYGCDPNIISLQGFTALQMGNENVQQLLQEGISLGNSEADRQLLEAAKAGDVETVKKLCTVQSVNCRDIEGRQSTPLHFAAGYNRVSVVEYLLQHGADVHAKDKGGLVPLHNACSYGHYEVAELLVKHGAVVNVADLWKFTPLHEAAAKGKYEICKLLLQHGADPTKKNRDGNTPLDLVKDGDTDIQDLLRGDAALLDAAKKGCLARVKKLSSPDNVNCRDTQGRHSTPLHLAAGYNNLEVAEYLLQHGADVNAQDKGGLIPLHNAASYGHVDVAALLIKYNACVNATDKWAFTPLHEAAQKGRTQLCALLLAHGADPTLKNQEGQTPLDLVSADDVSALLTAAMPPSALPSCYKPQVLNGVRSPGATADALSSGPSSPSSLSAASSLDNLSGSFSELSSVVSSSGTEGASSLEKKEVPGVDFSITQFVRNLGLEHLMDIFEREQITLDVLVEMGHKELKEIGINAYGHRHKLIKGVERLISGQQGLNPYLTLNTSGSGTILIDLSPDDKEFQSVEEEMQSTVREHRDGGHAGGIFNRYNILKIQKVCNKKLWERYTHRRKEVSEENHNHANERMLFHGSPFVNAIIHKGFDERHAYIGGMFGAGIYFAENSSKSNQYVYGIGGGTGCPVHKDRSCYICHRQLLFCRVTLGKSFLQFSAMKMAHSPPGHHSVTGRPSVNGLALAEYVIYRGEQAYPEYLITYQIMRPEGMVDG
T2 sequence (O95271 whole entry): T1 sequence (O95271 whole entry)
Test: not given
Conditions: not given

| IC50 [nM] | SMILES |
| --- | --- |
| 2.3 | CN1CCCc2c1nc(N1CCC3(CC1)C(=O)N(C)c1cc(OCCO)cc(F)c13)[nH]c2=O |
| 5.7 | CN1CCCc2c1nc(N1CCC3(CC1)C(=O)N(CS(C)(=O)=O)c1cc(F)cc(F)c13)[nH]c2=O |
| 2.4 | CN1CCCc2c1nc(N1CCC3(CC1)C(=O)N(CC(F)(F)F)c1cc(F)cc(F)c13)[nH]c2=O |
| 2.8 | CN1CCCc2c1nc(N1CCC3(CC1)C(=O)N(C)c1cc(OCCN4CCOCC4)cc(F)c13)[nH]c2=O |

Biological target: T2, Tankyrase 1/2
Test: not given
Conditions: hek293

| IC50 [nM] | SMILES |
| --- | --- |
| 0.8 | CN1CCCc2c1nc(N1CCC3(CC1)C(=O)N(C)c1cc(OCCO)cc(F)c13)[nH]c2=O |
| 0.1 | CN1CCCc2c1nc(N1CCC3(CC1)C(=O)N(CS(C)(=O)=O)c1cc(F)cc(F)c13)[nH]c2=O |
| 0.2 | CN1CCCc2c1nc(N1CCC3(CC1)C(=O)N(CC(F)(F)F)c1cc(F)cc(F)c13)[nH]c2=O |
| 0.3 | CN1CCCc2c1nc(N1CCC3(CC1)C(=O)N(C)c1cc(OCCN4CCOCC4)cc(F)c13)[nH]c2=O |

Biological target: T3, Poly [ADP-ribose] polymerase tankyrase-2 (Homo sapiens, UniProt Q9H2K2)
T3 sequence (Q9H2K2 whole entry): T2 sequence (Q9H2K2 whole entry)
Test: Inhibition of recombinant human N-terminal TEV cleavage site-fused/FLAG-poly his-tagged TNKS2 ARC5-SAM-PARP domain (613 to 1166 residues) expressed in Escherichia coli assessed as reduction in auto-PARylation preincubated for 10 mins followed by biotinylated-NAD+ addition and measured after 45 mins by ELISA
Conditions: not given

| IC50 [nM] | SMILES |
| --- | --- |
| 4.7 | CN1CCCc2c1nc(N1CCC3(CC1)C(=O)N(C)c1cc(OCCO)cc(F)c13)[nH]c2=O |
| 5.5 | CN1CCCc2c1nc(N1CCC3(CC1)C(=O)N(CS(C)(=O)=O)c1cc(F)cc(F)c13)[nH]c2=O |
| 32.4 | CN1CCCc2c1nc(N1CCC3(CC1)C(=O)N(CC(F)(F)F)c1cc(F)cc(F)c13)[nH]c2=O |
| 17.1 | CN1CCCc2c1nc(N1CCC3(CC1)C(=O)N(C)c1cc(OCCN4CCOCC4)cc(F)c13)[nH]c2=O |

System: not listed separately
Test: Stability in mouse liver microsomes assessed as parent compound remaining at 1 uM measured after 60 mins in presence of NADPH by LC-MS/MS analysis
Format: ADME, Microsome
Conditions: read-out: Stability

| remaining at 1 h, 1 µM [%] | SMILES |
| --- | --- |
| 0.7 | CN1CCCc2c1nc(N1CCC3(CC1)C(=O)N(C)c1cc(OCCO)cc(F)c13)[nH]c2=O |
| 0.1 | CN1CCCc2c1nc(N1CCC3(CC1)C(=O)N(CS(C)(=O)=O)c1cc(F)cc(F)c13)[nH]c2=O |
| 1 | CN1CCCc2c1nc(N1CCC3(CC1)C(=O)N(CC(F)(F)F)c1cc(F)cc(F)c13)[nH]c2=O |
| 41.4 | CN1CCCc2c1nc(N1CCC3(CC1)C(=O)N(C)c1cc(OCCN4CCOCC4)cc(F)c13)[nH]c2=O |

System: not listed separately
Test: Stability in human liver microsomes assessed as parent compound remaining at 1 uM measured after 60 mins in presence of NADPH by LC-MS/MS analysis
Format: ADME, Microsome
Conditions: read-out: Stability

| remaining at 1 h, 1 µM [%] | SMILES |
| --- | --- |
| 19.8 | CN1CCCc2c1nc(N1CCC3(CC1)C(=O)N(C)c1cc(OCCO)cc(F)c13)[nH]c2=O |
| 4.1 | CN1CCCc2c1nc(N1CCC3(CC1)C(=O)N(CS(C)(=O)=O)c1cc(F)cc(F)c13)[nH]c2=O |
| 8 | CN1CCCc2c1nc(N1CCC3(CC1)C(=O)N(CC(F)(F)F)c1cc(F)cc(F)c13)[nH]c2=O |
| 1.5 | CN1CCCc2c1nc(N1CCC3(CC1)C(=O)N(C)c1cc(OCCN4CCOCC4)cc(F)c13)[nH]c2=O |

System: not listed separately
Test: physchem
Conditions: phosphate buffered saline, pH 7.4

| solubility at 1 h, 200 µM [µg/mL] | SMILES |
| --- | --- |
| 75.1 (≈ 164 µM) | CN1CCCc2c1nc(N1CCC3(CC1)C(=O)N(C)c1cc(OCCO)cc(F)c13)[nH]c2=O |
| 3 (≈ 6.08 µM) | CN1CCCc2c1nc(N1CCC3(CC1)C(=O)N(CS(C)(=O)=O)c1cc(F)cc(F)c13)[nH]c2=O |
| 1.3 (≈ 2.69 µM) | CN1CCCc2c1nc(N1CCC3(CC1)C(=O)N(CC(F)(F)F)c1cc(F)cc(F)c13)[nH]c2=O |
| 101 (≈ 192 µM) | CN1CCCc2c1nc(N1CCC3(CC1)C(=O)N(C)c1cc(OCCN4CCOCC4)cc(F)c13)[nH]c2=O |

System: COLO 320DM
Test: Antiproliferative activity against human COLO320DM cells assessed as inhibition of cell growth measured after 4 days by CellTiter-Glo assay
Format: functional
Conditions: 96 h

| GI50 [nM] | SMILES |
| --- | --- |
| 160 | CN1CCCc2c1nc(N1CCC3(CC1)C(=O)N(C)c1cc(OCCO)cc(F)c13)[nH]c2=O |
| 530 | CN1CCCc2c1nc(N1CCC3(CC1)C(=O)N(CS(C)(=O)=O)c1cc(F)cc(F)c13)[nH]c2=O |
| 70 | CN1CCCc2c1nc(N1CCC3(CC1)C(=O)N(CC(F)(F)F)c1cc(F)cc(F)c13)[nH]c2=O |
| 330 | CN1CCCc2c1nc(N1CCC3(CC1)C(=O)N(C)c1cc(OCCN4CCOCC4)cc(F)c13)[nH]c2=O |

System: not listed separately
Test: Efflux ratio of permeability across basolateral to apical side over apical to basolateral side in MDCK2 cells
Format: ADME, cell-based, Canis lupus familiaris, MDCK-II
Conditions: dog, mdck

| efflux ratio | SMILES |
| --- | --- |
| 6.2 | CN1CCCc2c1nc(N1CCC3(CC1)C(=O)N(C)c1cc(OCCO)cc(F)c13)[nH]c2=O |
| 3.3 | CN1CCCc2c1nc(N1CCC3(CC1)C(=O)N(CS(C)(=O)=O)c1cc(F)cc(F)c13)[nH]c2=O |
| 0.7 | CN1CCCc2c1nc(N1CCC3(CC1)C(=O)N(CC(F)(F)F)c1cc(F)cc(F)c13)[nH]c2=O |
| 5.1 | CN1CCCc2c1nc(N1CCC3(CC1)C(=O)N(C)c1cc(OCCN4CCOCC4)cc(F)c13)[nH]c2=O |
